Patent US20240269302A1, “NANOPARTICLE COMPRISING PEPTIDE-LIPID CONJUGATE FOR DELIVERING OLIGONUCLEOTIDE INTO TARGET CELL AND PHARMACEUTICAL COMPOSITION COMPRISING SAME” (NIBEC CO., LTD., priority 2021, published 2024)

System: KRAS mRNA
Test: Reduction of KRAS mRNA by KRAS siRNA delivered into cells, quantitative real-time PCR
Format: cell-based, human
Details: H358 cells, 100 nM, 16 hours, qRT-PCR, 18S rRNA as housekeeping gene
Description: H358 cells were seeded at a density of 70% in a 6-well plate. After 16 hours, cell starvation was performed overnight with DMEM containing 0.5% FBS. The cells were treated with a medium containing nanoparticles comprising KRAS siRNA and a peptide-lipid conjugate at a concentration of 100 nM for 16 hours. As a control, 100 nM of siRNA mixed with Lipofectamine was used.
Quantitative real-time PCR was performed in the following manner. For mRNA quantification, total RNA was isolated using the Qiagen RNeasy kit. cDNA was synthesized using Verso cDNA kit (Thermo Scientific) using 500 ng RNA. mRNA values were measured with a 7500 Fast Real-Time PCR System (Applied Biosystems) based on SYBR Green.
18S rRNA was used as a housekeeping gene (control gene). PCR was performed using reverse-transcribed RNA and 100 ng/μL of sense and antisense primers (total volume 20 μL) were used. 40 cycles were performed and each cycle included denaturation at 95° ° C. for 15 seconds, annealing for 1 minute, and extension at 60° ° C.

“siRNA alone: siRNA that inhibits the expression of KRAS (SEQ ID NO: 19 sense, SEQ ID NO: 20 antisense), without carrier (sense CAGCUAAUUCAGAAUCAUU; antisense AAUGAUUCUGAAUUAGCUG; listed as RNA, chemistry not given here)” was tested, and the “KRAS mRNA” value was “no effect”.
